Laboratory results reported in US20230109717A1 (GAIA BioMedicine Inc., priority 2020, published 2023).
“Also recorded” adds a separate entry of the source.

Columns and labels:
highly active NK cells [1] = assay: Viability of freeze-thawed highly active NK cells (7-AAD staining, flow cytometry, FlowJo)
Description: The highly activated NK cells (1×10^5 cells/well) thawed under each condition were centrifuged on a 96-well plate (IWAKI, 4870-800SP), the supernatant was removed, and then a 7-amino-actinomycin D (7-AAD) solution diluted with PBS (Beckman Coulter, A 07704) was added to the cells to suspend them, and the suspension was incubated at room temperature (room temperature means 15 to 25° C., the same shall apply in the following experiments) for 20 minutes. The stained cells were measured by using a flow cytometer (BD LSR Fortessa, BD Biosciences).
The NK cells frozen for 48 hours or longer were thawed in a water bath at 37° C., and 1×10^5 cells were dispensed on a 96-well plate (IWAKI) immediately after the thawing. […] The cells dispensed immediately after thawing were centrifuged immediately after they were dispensed, and the cells of the other four groups were centrifuged after incubation of 3 hours, measurement was performed by the method for staining with 7-AAD described above, and the results were analyzed with the FlowJo software (FLOWJO, LLC) to calculate viable cell rates.
The NK cells frozen for 48 hours or longer were thawed at 37° C. in a water bath, and then 1×10^5 of the cells were dispensed on a 96-well plate immediately after the thawing. […] The cells dispensed immediately after thawing were centrifuged immediately after they were dispensed, and the cells of the other four groups were centrifuged after incubation of 3 hours, measurement was performed by the method for staining with 7-AAD described above, and the results were analyzed with the FlowJo software (FLOWJO, LLC) to calculate viable cell rates.
Then, measurement was performed by the method for staining with 7-AAD described above, and the results were analyzed with the FlowJo software. […] Then, measurement was performed by the method for staining with 7-AAD described above, and the results were analyzed with the FlowJo software. (8-3) The experiment was performed in the same manner as in (8-1), but (1) PBS, (2) Plasma-Lyte A, (3) Plasma-Lyte A containing 27.7 mEq/L of lactic acid (Nacalai Tesque, 20006-62), (4) Plasma-Lyte A containing 48.84 mg/L of MgSO4.7H2O (Nacalai Tesque, 21002-85), (5) Lactoringer, (6) Veen-F (Fuso Pharma), (7) Solita-T1 (AY Pharmaceuticals), (8) Solita-T3 (AY Pharmaceuticals), (9) 5% glucose injection solution (Terumo), and (10) RPMI medium were used as the solvents for dilution of thawed cells, and the cells were incubated at 37° C. for 3 hours. In the case of (3), lactic acid was added at the same concentration as the lactate concentration in Lactoringer, and neutrality of the solution was confirmed with litmus test paper. In the case of (4), MgSO4 was added at the same concentration as the MgSO4 concentration in HBSS. Measurement was then performed by the method for staining with 7-AAD described above, and the results were analyzed with the FlowJo software. (8-4) The experiment was performed in the same manner as in (8-2), but the cells were treated by using (1) PBS, (2) Plasma-Lyte A, (3) saline (OTSUKA NORMAL SALINE, Otsuka Pharmaceutical), (4) Bicanate (Otsuka Pharmaceutical), and (5) Solacet F (Terumo) as the solvents for dilution of thawed cells. Measurement was then performed by the method for staining with 7-AAD described above, and the results were analyzed with the FlowJo software. […] Immediately after completely thawed, the cells were diluted 10-fold in (1) Plasma-Lyte A, (2) saline, (3) RPMI 1640 medium, (4) Lactoringer, (5) 0.423 mM CaCl2 prepared in Plasma-Lyte A, and (6) 1.36 mM CaCl2, and left to stand at 37° C. for 3 hours. The CaCl2 concentration of (5) was the same as that in the RPMI 1640 medium, and the CaCl2 concentration of (6) was the same as that in Lactoringer. Measurement was then performed by the method for staining with 7-AAD described above, and the results were analyzed with the FlowJo software.

highly active NK cells [2] = assay: Viable cell count and recovery rate of highly active NK cells after thawing, based on cell number at freezing; set-up: species or system human
Description: After the thawing, all the dilution and incubation operations were performed on a low-absorption 6-well plate.
The cells of the groups diluted in the media were incubated overnight at 37° C. under 5% CO2, and then the numbers of viable cells were counted. The experimental conditions are summarized below.
The NK cells obtained by the collection method 1 were suspended in PBS, and incubated at room temperature for 1 hour. The NK cells obtained by the collection method 2 were suspended in (1) the KBM501 medium, (2) KBM501 medium containing 30 μM 4-phenylbutyric acid, (3) KBM501 medium containing 30 μM tauroursodeoxycholic acid dihydrate (TUDCA, Tokyo Kasei Kogyo, T1567), and (4) KBM501 medium containing 30 μM 4-phenylbutyric acid and 30 μM TUDCA, and incubated at 37° C. for 2 hours under 5% CO2. […] After 1 hour, the cells were gently suspended, and number of viable cells was counted. After another 5-fold dilution in the KBM501 medium and incubation at 37° C. for 2 hours under 5% CO2, number of viable cells was counted, and the recovery rate based on the number of cells at the time of freezing was calculated.
(§1) After 1 and 3 hours, the cells were gently suspended, and viable cells were counted. In addition, after 1 hour, the cells were diluted 5-fold in the KBM501 medium, and incubated at 37° C. for 2 hours under 5% CO2, and viable cell were counted. Recovery rate of viable cells after the thawing based on the cell number at the time of freezing was calculated using the number of viable cells at each time point.
as §1, with “on the basis of” for “using”, “point after the thawing.” for “point.”

K562 cells = assay: Cytotoxic activity rate (% Lysis) of freeze-thawed highly active NK cells against K562 cells; format: cell-based; details: Exmp. 7, collect. method 2, pretreatment KBM + 2.4% DMSO 2 h
Description: Cytotoxic activity can be expressed as the percentage of target cells killed by effector cells, and is calculated in accordance with the following equation.
(Cell death observed in co-culture with effector cells−Spontaneous cell death (negative control))/(Maximum cell death (positive control)−Spontaneous cell death (negative control))×100
For the measurement of cytotoxic activity, a group of the K562 cells reacted with the NK cells, a group consisting solely of the K562 cells as a negative control, and a group of the K562 cells fixed with 10% formalin as a positive control were prepared.
After incubation for the times indicated for the groups, the cells were collected, and prepared at a density of 2×10^6 cells/mL in 10% FBS/RPMI 1640.
The K562 cells (human chronic myelogenous leukemia cell line) were suspended in serum-free RPMI 1640 medium, stained with PKH26 Red Fluorescent Cell Linker Kit (Sigma, PKH26GL-1KT), and finally prepared at a density of 2×10^6 cells/mL in 10% FBS/RPMI 1640.
The NK cells and K562 cells were added and mixed in wells of 96-well plate (IWAKI, 4870-800SP) at a cell ratio of 1:1, and allowed to react at 37° C. for 2 hours under 5% CO2. After the reaction, the plate was centrifuged (500×g, 5 minutes), and the supernatant was removed. Then, a 7-AAD solution diluted with PBS was added to the cells to suspend the cells, and the suspension was incubated at room temperature for 20 minutes. […]
For the measurement of cytotoxic activity, a group of the NK cells reacted with the K562 cells, a group solely consisting of the K562 cells as a negative control, and a group of the K562 cells fixed with 10% formalin as a positive control were prepared.
The cells were thawed and diluted by the method described above, and a necessary amount of the cells were taken on the basis of the number of viable cells at the time of freezing, and then prepared at a density of 2×10^6 cells/mL in 10% FBS/RPMI 1640.
The K562 cells were suspended in serum-free RPMI 1640 medium, stained with PKH26 Red Fluorescent Cell Linker Kit, and then prepared at a density of 2×10^6 cells/mL in 10% FBS/RPMI 1640. […]
For the measurement of cytotoxic activity, a group of NK cells reacted with K562 cells, a group of K562 cells only as a negative control, and a group of K562 cells fixed with 10% formalin as a positive control were prepared. […]
(9-2) Cytotoxic activity was measured in the same manner as described in the section of (9-1), but after thawing and dilution, the cells were left to stand for up to 6 hours, and cytotoxic activity was measured by the method described in the section b) mentioned above at the time points of 2, 5, and 6 hours. In detail, the NK cells and K562 cells were added to each well of a 96-well plate (IWAKI, 4870-800SP) at a cell ratio of 1:1, mixed, and then allowed to react at 37° C. for 2 hours under 5% CO2.

highly active NK cells [3] = assay: Optical microscope observation of highly active NK cells after freeze-thawing; format: cell-based, human; details: additive in KBM501 medium used for 10-fold dilution after thawing; 37° C. 3 hours (or 4° C. 3 hours then 37° C. 3 hours); cells washed with PBS
Description: The NK cells frozen for 48 hours or longer were thawed at 37° C. in a water bath, then diluted 10-fold in the solvents mentioned below, left to stand at the temperatures for the times mentioned below, then observed and photographed under an optical microscope.
<1> Diluted in the KBM501 medium, and left to stand at 37° C. for 3 hours. <2> Diluted in the KBM501 medium containing Z-Vad, and left to stand at 37° C. for 3 hours. <3> Diluted in the KBM501 medium containing methylprednisolone, and left to stand at 37° C. for 3 hours. <4> Diluted in the KBM501 medium containing dexamethasone, and left to stand at 37° C. for 3 hours. <5> Diluted in the KBM501 medium, and left to stand at 4° C. for 3 hours. <6> Diluted in the KBM501 medium containing methylprednisolone, and left to stand at 4° C. for 3 hours, and then at 37° C. for 3 hours. <7> Diluted in the KBM501 medium containing dexamethasone, and left to stand at 4° C. for 3 hours, and then at 37° C. for 3 hours.

With `O=C(O)CCCc1ccccc1` [4-PBA, 4-phenylbutyric acid] as the molecule, how does the Viability (highly active NK cells [1]; Exmp. 4, collect. method 1, pretreatment KBM + 10 μM 4-PBA 2 h, thawing PlasmaLyte + IL-2 1 h, then KBM o/n) read?
The Viability was “A (“A” means 70% or higher)”.

And the “Recovery rate after the thawing” value (highly active NK cells [2]; pretreatment 2 hours with KBM501 medium supplemented with 30 μM additive before freezing, Example 5)?
The value was “improved”.

What about the “Viability after the thawing” value (highly active NK cells [2]; treatment with KBM501 supplemented with 10 or 100 μM additive before freezing, viable cells counted after overnight incubation, Example 4) of the same molecule?
The value was “improved”.

For `C[S+](C)[O-]` [DMSO, dimethyl sulfoxide], which Activity (K562 cells; thawing PlasmaLyte + IL-2, R.T. 1 h) is on record?
Its Activity is “A (A means 70% or higher)”.

What about the Activity (K562 cells; thawing PlasmaLyte + IL-2, R.T. 1 h, then KBM 2 h) of the same molecule?
Its Activity is “A (A means 70% or higher)”.

And the Activity (K562 cells; thawing PlasmaLyte + IL-2, R.T. 3 h)?
Its Activity is “A (A means 70% or higher)”.

What about the Activity (K562 cells; thawing PlasmaLyte R.T. 1 h) of the same molecule?
The Activity was “A (A means 70% or higher)”.

What about the Activity (K562 cells; thawing PlasmaLyte R.T. 1 h, then KBM 2 h) of the same molecule?
The Activity was “A (A means 70% or higher)”.

And the Activity (K562 cells; thawing PlasmaLyte R.T. 3 h)?
The Activity was “A (A means 70% or higher)”.

For `[Cl-].[Cl-].[Mg+2]` [MgCl2, Magnesium chloride], which Viability (highly active NK cells [1]; 100 mM as solution used at thawing, cells washed with KBM501 medium, conditions (12-4) and (12-5)) is on record?
Its Viability is “degraded”.

For `O=C([O-])[C@H](O)[C@@H](O)[C@H](O)[C@H](O)CO.[Na+]` [gluconic acid, sodium gluconate], which “Viability of frozen highly active NK cells after thawing” value (highly active NK cells [1]; added to KBM501 medium used for dilution at thawing (5.02 mg/mL sodium gluconate), 37° C. 3 hours, Example 1) is on record?
Its value is “did not show improvement; also recorded: no improvement”.

How did the “Viability of highly active NK cells after freeze-thawing (optical micrographs)” value (highly active NK cells [3]) turn out when Z-VAD was run?
The value was “not improved”.
